system: IL-2 production; assay: Inhibition of IL-2 production in PHA-activated Jurkat cells (ELISA); assay type: cell-based; settings: Homo sapiens, PHA 2.5 μg/mL, 20 hours, IL-2 ELISA
Description: Jurkat cells were placed in a 96 well plate (0.5 million cells per well in 1% FBS medium) then a test compound of this invention was added at different concentrations. After 10 minutes, the cells were activated with PHA (final concentration 2.5 μg/mL) and incubated for 20 hours at 37° C. under CO2. The final volume was 200 μL. Following incubation, the cells were centrifuged and the supernatants collected and stored at −70° C. prior to assaying for IL-2 production. A commercial ELISA kit (IL-2 Eli-pair, Diaclone Research, Besancon, France) was used to detect production of IL-2, from which dose response curves were obtained. The IC50 value was calculated as the concentration at which 50% of maximum IL-2 production after stimulation was inhibited versus a non-stimulation control.

SMILES | IC50 [nM]
O=C(Nc1ccc2c(c1)CCCC=C2c1ccccc1)c1c(F)cccc1F [Compound 6, 2,6-Difluoro-N-(5-phenyl-8,9-dihydro-7H-benzocyclohepten-2-yl)-benzamide] | 168
C/C(C(=O)O)=C1/CCCc2cc(NC(=O)c3c(F)cccc3F)ccc21 [Compound 1, 2-[6-(2,6-Difluoro-benzoylamino)-3,4-dihydro-2H-naphthalen-1-ylidene]-propionic acid] | > 1000
C/C(CO)=C1/CCCc2cc(NC(=O)c3c(F)cccc3F)ccc21 [Compound 5, 2,6-Difluoro-N-[5-(2-hydroxy-1-methyl-ethylidene)-5,6,7,8-tetrahydro-naphthalen-2-yl]-benzamide] | > 1000
COC(=O)/C(C)=C1\CCCc2cc(NC(=O)c3c(F)cccc3F)ccc21 [Compound 2, 2-[6-(2,6-Difluoro-benzoylamino)-3,4-dihydro-2H-naphthalen-1-ylidene]-propionic acid methyl ester] | > 1000
C/C(C(=O)N1CCOCC1)=C1/CCCc2cc(NC(=O)c3c(F)cccc3F)ccc21 [Compound 3, 2,6-Difluoro-N-[5-(1-methyl-2-morpholin-4-yl-2-oxo-ethylidene)-5,6,7,8-tetrahydro-naphthalen-2-yl]-benzamide] | 18

The next lines start with the values.

IC50 [nM] | SMILES
392 | CC1=C(c2ccccc2)c2ccc(NC(=O)c3c(F)cccc3F)cc2CCC1 [Compound 7, 2,6-Difluoro-N-(5-phenyl-6-methyl-8,9-dihydro-7H-benzocyclohepten-2-yl)-benzamide]
560 | CC(=O)Nc1ccc(C2=CCCCc3cc(NC(=O)c4c(F)cccc4F)ccc32)cc1 [Compound 9, 2,6-Difluoro-N-[5-(4-acetylamino-phenyl)-8,9-dihydro-7H-benzocyclohepten-2-yl]-benzamide]
146 | Nc1ccc(C2=CCCCc3cc(NC(=O)c4c(F)cccc4F)ccc32)cc1 [Compound 8, 2,6-Difluoro-N-[5-(4-amino-phenyl)-8,9-dihydro-7H-benzocyclohepten-2-yl]-benzamide]
